Results published in patent US8633315B2, “Substituted hydroxyethyl amine compounds as beta-secretase modulators and methods of use” (Amgen Inc., priority 2007, dated 2014).
pIC50: −log10 of the molar value. Like-named read-outs stand apart in the source and are kept apart here.

Assays:
[1] = tested on: Cells stably expressing Amyloid Precursor Protein (APP); test: In vitro BACE cell-based assay (HEK cell assay): Aβ40 in conditioned medium by sandwich ELISA
Summary of the method: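 Secreted Aβ40 was quantified by time-resolved fluorescence sandwich ELISA, capturing with pAb40 for 3 h at 4 °C and detecting with biotinylated 6E10 for 2 h at 4 °C. Media came from APP-expressing cells exposed 24 h to compounds (10-point series from 100 or 10 μM, 0.1% DMSO); IC50 derived from percent of control.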

BACE1 = BACE1 (Homo sapiens, UniProt P56817); test: In vitro enzymatic BACE FRET (fluorescence resonance energy transfer) assay; format: biochemical
Chain of BACE1 (P56817 46-501, species assumed): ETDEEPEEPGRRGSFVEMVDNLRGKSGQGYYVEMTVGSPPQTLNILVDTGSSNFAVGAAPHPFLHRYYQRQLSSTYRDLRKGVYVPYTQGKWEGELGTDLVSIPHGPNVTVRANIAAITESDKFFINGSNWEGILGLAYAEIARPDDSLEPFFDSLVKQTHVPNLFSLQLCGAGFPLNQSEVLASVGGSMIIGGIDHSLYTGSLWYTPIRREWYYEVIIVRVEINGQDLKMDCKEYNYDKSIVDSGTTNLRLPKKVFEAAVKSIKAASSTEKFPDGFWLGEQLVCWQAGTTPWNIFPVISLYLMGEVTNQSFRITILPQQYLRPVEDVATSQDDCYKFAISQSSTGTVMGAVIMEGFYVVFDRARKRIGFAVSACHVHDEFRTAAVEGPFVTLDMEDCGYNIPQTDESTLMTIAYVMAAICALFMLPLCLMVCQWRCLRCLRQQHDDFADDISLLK
Summary of the method: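 Fluorescence (ex 488 nm, […]) was read after Tris addition raised pH to neutral, ending a one-hour incubation. Reaction started with 50 nM fluorophore/quencher peptide substrate in pH 4.2 acetate (0.05 M) containing 100 uM genapol and 10% DMSO final.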

[2] = Homo sapiens, HEK293, 24 h, Aβ40 in conditioned medium after 24 h incubation
[3] = Aβ40 in conditioned medium after 24 h incubation

| SMILES | pIC50 [1, 2] | pIC50 (BACE1) | other results |
| --- | --- | --- | --- |
| CC=CC[C@H](NC(=O)COC)[C@H](O)CN[C@H]1CC2(CC(F)C2)Oc2ncc(CC(C)(C)C)cc21 (stereo partly drawn) [Example 110, N-((1S)-1-((1R)-2-(((1s,3S,4′S)-6′-(2,2-dimethylpropyl)-3-fluoro-3′,4′-dihydrospiro[cyclobutane-1,2′-pyrano[2,3-b]pyridin]-4′-yl)amino)-1-hydroxyethyl)-3-penten-1-yl)-2-(methyloxy)acetamide] |  | 7.40 | pIC50 [1, 3]: 6.53 |
| C#CC[C@H](NC(=O)c1cc(F)cc(F)c1)[C@H](O)CN[C@H]1CC2(CCC2)Oc2ncc(CC(C)(C)C)cc21 [Example 36, N-((1S)-1-((1R)-2-(((4′S)-6′-(2,2-dimethylpropyl)-3′,4′-dihydrospiro[cyclobutane-1,2′-pyrano[2,3-b]pyridin]-4′-yl)amino)-1-hydroxyethyl)-3-butyn-1-yl)-3,5-difluorobenzamide] | 5.38 | 6.64 |  |
| C=CCC(NC(C)=O)C(O)CNC1CC2(CC(O)C2)Oc2ccc(Br)cc21 [Example 118, N-((1S)-1-((1R)-2-(((2s,3′S,4S)-6-bromo-3′-hydroxy-3,4-dihydrospiro[chromene-2,1′-cyclobutan]-4-yl)amino)-1-hydroxyethyl)-3-buten-1-yl)acetamide] |  | 5.22 | pIC50 [1, 3]: ≤ 5.00 |
| CCC[C@H](NC(=O)[C@@H]1CCCO1)[C@H](O)CN[C@H]1CC2(CCC2)Oc2c1cc(CC(C)(C)C)nc2Cl [compound 224, (2S)-N-((1S)-1-((1R)-2-(((4′S)-8′-chloro-6′-(2,2-dimethylpropyl)-3′,4′-dihydrospiro[cyclobutane-1,2′-pyrano[2,3-c]pyridin]-4′-yl)amino)-1-hydroxyethyl)butyl)tetrahydro-2-furancarboxamide] |  |  | pIC50 ([1]; Homo sapiens, HEK293): 5.55; pIC50 (BACE1; read-out: BACE 1 FRET assay): 6.27 |
| C=CC[C@H](NC(=O)c1c(F)cccc1F)[C@H](O)CN[C@H]1CC2(CCC2)Oc2ncc(CC(C)(C)C)cc21 [Example 72, N-((1S)-1-((1R)-2-(((4′S)-6′-(2,2-dimethylpropyl)-3′,4′-dihydrospiro[cyclobutane-1,2′-pyrano[2,3-b]pyridin]-4′-yl)amino)-1-hydroxyethyl)-3-buten-1-yl)-2,6-difluorobenzamide] | 5.45 | 6.56 |  |
| CC=CC[C@H](NC(C)=O)[C@H](O)CN[C@H]1CC2(CC(F)C2)Oc2ncc(CC(C)(C)C)cc21 (stereo partly drawn) [Example 109, N-((1S)-1-((1R)-2-(((1s,3S,4′S)-6′-(2,2-dimethylpropyl)-3-fluoro-3′,4′-dihydrospiro[cyclobutane-1,2′-pyrano[2,3-b]pyridin]-4′-yl)amino)-1-hydroxyethyl)-3-penten-1-yl)acetamide] |  | 7.43 | pIC50 [1, 3]: 7.21 |
| C=CC[C@H](NC(=O)c1cccnc1OC)[C@H](O)CN[C@H]1CC2(CCC2)Oc2ncc(CC(C)(C)C)cc21 [Example 65, N-((1S)-1-((1R)-2-(((4′S)-6′-(2,2-dimethylpropyl)-3′,4′-dihydrospiro[cyclobutane-1,2′-pyrano[2,3-b]pyridin]-4′-yl)amino)-1-hydroxyethyl)-3-buten-1-yl)-2-(methyloxy)-3-pyridinecarboxamide] | 6.59 | 6.32 |  |
| C=CCC(NC(=O)CF)C(O)CNC1CC2(CC(O)C2)Oc2ncc(CC(C)(C)C)cc21 [Example 111, N-((1S)-1-((1R)-2-(((1s,3S,4′S)-6′-(2,2-dimethylpropyl)-3-hydroxy-3′,4′-dihydrospiro[cyclobutane-1,2′-pyrano[2,3-b]pyridin]-4′-yl)amino)-1-hydroxyethyl)-3-buten-1-yl)-2-fluoroacetamide] |  | 7.70 | pIC50 ([1]; Homo sapiens, HEK293, Aβ40 in conditioned medium after 24 h incubation): 7.19 |
| C#CC[C@H](NC(C)=O)[C@H](O)CN[C@H]1CC2(CCC2)Oc2ncc(CC(C)(C)C)cc21 [Example 84, N-((1S)-1-((1R)-2-(((4′S)-6′-(2,2-dimethylpropyl)-3′,4′-dihydrospiro[cyclobutane-1,2′-pyrano[2,3-b]pyridin]-4′-yl)amino)-1-hydroxyethyl)-3-butyn-1-yl)acetamide] | 6.65 | 7.40 |  |
| C=CC[C@H](NC(=O)c1ccc(F)c(F)c1F)[C@H](O)CN[C@H]1CC2(CCC2)Oc2ncc(CC(C)(C)C)cc21 [Example 73, N-((1S)-1-((1R)-2-(((4′S)-6′-(2,2-dimethylpropyl)-3′,4′-dihydrospiro[cyclobutane-1,2′-pyrano[2,3-b]pyridin]-4′-yl)amino)-1-hydroxyethyl)-3-buten-1-yl)-2,3,4-trifluorobenzamide] | 5.58 | 6.32 |  |

Further lines, with some results ahead:

| pIC50 [1, 2] | pIC50 (BACE1) | SMILES | other results |
| --- | --- | --- | --- |
| 6.32 | 6.02 | C=CC[C@H](NC(=O)C(C)(C)F)[C@H](O)CN[C@H]1CC2(CCC2)Oc2ncc(CC(C)(C)C)cc21 [Example 141, N-((1S)-1-((1R)-2-(((4′S)-6′-(2,2-dimethylpropyl)-3′,4′-dihydrospiro[cyclobutane-1,2′-pyrano[2,3-b]pyridin]-4′-yl)amino)-1-hydroxyethyl)-3-buten-1-yl)-2-fluoro-2-methylpropanamide] |  |
| 7.19 | 6.71 | C=CC[C@H](NC(C)=O)[C@H](O)CN[C@H]1CC2(CCC2)Oc2ncc(CC(C)(F)F)cc21 [Example 120, N-((1S)-1-((1R)-2-(((4′S)-6′-(2,2-difluoropropyl)-3′,4′-dihydrospiro[cyclobutane-1,2′-pyrano[2,3-b]pyridin]-4′-yl)amino)-1-hydroxyethyl)-3-buten-1-yl)acetamide] |  |
| 6.47 | 7.43 | C=CC[C@H](NC(=O)C(C)(F)F)[C@H](O)CN[C@H]1CC2(CCC2)Oc2ncc(CC(C)(C)C)cc21 [Example 136, N-((1S)-1-((1R)-2-(((4′S)-6′-(2,2-dimethylpropyl)-3′,4′-dihydrospiro[cyclobutane-1,2′-pyrano[2,3-b]pyridin]-4′-yl)amino)-1-hydroxyethyl)-3-buten-1-yl)-2,2-difluoropropanamide] |  |
| 6.52 | 7.11 | C=CC[C@H](NC(=O)COC(C)C)[C@H](O)CN[C@H]1CC2(CCC2)Oc2ncc(CC(C)(C)C)cc21 [Example 145, N-((1S)-1-((1R)-2-(((4′S)-6′-(2,2-dimethylpropyl)-3′,4′-dihydrospiro[cyclobutane-1,2′-pyrano[2,3-b]pyridin]-4′-yl)amino)-1-hydroxyethyl)-3-buten-1-yl)-2-((1-methylethyl)oxy)acetamide] |  |
| 6.70 | 7.21 | C=CC[C@H](NC(=O)c1cncs1)[C@H](O)CN[C@H]1CC2(CCC2)Oc2ncc(CC(C)(C)C)cc21 [Example 97, N-((1S)-1-((1R)-2-(((4′S)-6′-(2,2-dimethylpropyl)-3′,4′-dihydrospiro[cyclobutane-1,2′-pyrano[2,3-b]pyridin]-4′-yl)amino)-1-hydroxyethyl)-3-buten-1-yl)-1,3-thiazole-5-carboxamide] |  |
| 5.95 | 6.46 | C=CC[C@H](NC(=O)COC(C)(C)C)[C@H](O)CN[C@H]1CC2(CCC2)Oc2ncc(CC(C)(C)C)cc21 [Example 144, 2-((1,1-dimethylethyl)oxy)-N-((1S)-1-((1R)-2-(((4′S)-6′-(2,2-dimethylpropyl)-3′,4′-dihydrospiro[cyclobutane-1,2′-pyrano[2,3-b]pyridin]-4′-yl)amino)-1-hydroxyethyl)-3-buten-1-yl)acetamide] |  |
|  | 6.86 | C=CCC(NC(=O)C1CC1OCC)C(O)CNC1CC2(CCC2)Oc2ncc(CC(C)(C)C)cc21 [Example 154, (1R,2S)-N-((1S)-1-((1R)-2-(((4′S)-6′-(2,2-dimethylpropyl)-3′,4′-dihydrospiro[cyclobutane-1,2′-pyrano[2,3-b]pyridin]-4′-yl)amino)-1-hydroxyethyl)-3-buten-1-yl)-2-(ethyloxy)cyclopropanecarboxamide; (1S,2R)-N-((1S)-1-((1R)-2-(((4′S)-6′-(2,2-dimethylpropyl)-3′,4′-dihydrospiro[cyclobutane-1,2′-pyrano[2,3-b]pyridin]-4′-yl)amino)-1-hydroxyethyl)-3-buten-1-yl)-2-(ethyloxy)cyclopropanecarboxamide] | pIC50 [1, 3]: 6.62 |
| 6.65 | 6.65 | C=CC[C@H](NC(=O)COC)[C@H](O)CN[C@H]1CC2(CCC2)Oc2ncc(CC(C)(F)F)cc21 [Example 121, N-((1S)-1-((1R)-2-(((4′S)-6′-(2,2-difluoropropyl)-3′,4′-dihydrospiro[cyclobutane-1,2′-pyrano[2,3-b]pyridin]-4′-yl)amino)-1-hydroxyethyl)-3-buten-1-yl)-2-(methyloxy)acetamide] |  |
| 6.89 | 6.98 | C=CCC(NC(=O)C1CC1OCC)C(O)CNC1CC2(CCC2)Oc2ncc(CC(C)(C)C)cc21 [Example 153, (1R,2R)-N-((1S)-1-((1R)-2-(((4′S)-6′-(2,2-dimethylpropyl)-3′,4′-dihydrospiro[cyclobutane-1,2′-pyrano[2,3-b]pyridin]-4′-yl)amino)-1-hydroxyethyl)-3-buten-1-yl)-2-(ethyloxy)cyclopropanecarboxamide; (1S,2S)-N-((1S)-1-((1R)-2-(((4′S)-6′-(2,2-dimethylpropyl)-3′,4′-dihydrospiro[cyclobutane-1,2′-pyrano[2,3-b]pyridin]-4′-yl)amino)-1-hydroxyethyl)-3-buten-1-yl)-2-(ethyloxy)cyclopropanecarboxamide] |  |
| 5.73 | 6.03 | C=CC[C@H](NC(=O)[C@@H](OC)C(C)C)[C@H](O)CN[C@H]1CC2(CCC2)Oc2ncc(CC(C)(C)C)cc21 [Example 149, (2S)-N-((1S)-1-((1R)-2-(((4′S)-6′-(2,2-dimethylpropyl)-3′,4′-dihydrospiro[cyclobutane-1,2′-pyrano[2,3-b]pyridin]-4′-yl)amino)-1-hydroxyethyl)-3-buten-1-yl)-3-methyl-2-(methyloxy)butanamide] |  |
